Laboratory results reported in the CheMixHub ionic liquid set.

Test: xn = mol fraction of the nth substance listed

O=S(=O)([O-])C(F)(F)F.[Li+] + CCCC[n+]1ccn(C)c1.N#C[N-]C#N
electrical conductivity [S/m], 101 kPa
Settings	x2 = 0.8612	x2 = 0.8907	x2 = 0.9197	x2 = 0.9504	x2 = 0.9799
288.15 K	0.236	–	0.387	0.489	0.591
298.15 K	0.399	0.521	0.625	0.776	0.91
333.15 K	1.4	1.72	1.91	2.25	2.55

[Br-].[Li+] + CCCC[n+]1ccn(C)c1.N#C[S-] + CN1CCCC1=O
298.15 K, 101 kPa
Settings	viscosity [mPa·s]
x2 = 0, x1 = 0.02626	2.359
x2 = 0, x1 = 0.05114	3.124
x2 = 0, x1 = 0.07535	4.344

CCCCOC(C)=O + CCCC[n+]1ccn(C)c1.O=S(=O)([N-]S(=O)(=O)C(F)(F)F)C(F)(F)F
Settings	electrical conductivity, x1 = 0.8928 [S/m]	electrical conductivity, x1 = 0.9456 [S/m]	viscosity, x1 = 0.313 [mPa·s]	viscosity, x1 = 0.8928 [mPa·s]	viscosity, x1 = 0.9456 [mPa·s]
298.15 K, 100 kPa	0.373	0.163	–	1.47	1.092
318.15 K, 100.7 kPa	–	–	10	–	–

N[C@@H](CO)C(=O)O + CCCC[n+]1ccn(C)c1.[Br-] + O
viscosity [mPa·s], 101.3 kPa
Settings	x1 = 0.0003603, x2 = 0	x1 = 0.0007203, x2 = 0	x1 = 0.001078, x2 = 0	x1 = 0.00144, x2 = 0	x1 = 0.001781, x2 = 0	x1 = 0.002158, x2 = 0	x1 = 0.002516, x2 = 0
293.15 K	1.007	1.012	1.018	1.023	1.028	1.033	1.039
298.15 K	0.897	0.902	0.907	0.911	0.916	0.92	0.925
303.15 K	0.804	0.809	0.813	0.818	0.822	0.827	0.831
308.15 K	0.727	0.73	0.735	0.739	0.744	0.748	0.753
313.15 K	0.661	0.664	0.668	0.673	0.677	0.682	0.686

Oc1cccnc1 + CCCC[n+]1ccn(C)c1.[Cl-]
Settings	viscosity [mPa·s]
293.15 K, 100 kPa, x1 = 0.333	179.1

II + CCCC[n+]1ccn(C)c1.[I-]
Settings	electrical conductivity [S/m]
298 K, 101.3 kPa, x2 = 0.333	3.07

CC[N+](C)(CC)CCOC.F[B-](F)(F)F + CCCC[n+]1ccn(C)c1C.F[B-](F)(F)F
100 kPa
Settings	electrical conductivity [S/m]
313.15 K, x1 = 0.4	0.289
313.15 K, x1 = 0.7	0.302
318.15 K, x1 = 0.2	0.318
318.15 K, x1 = 0.4	0.361
318.15 K, x1 = 0.5	0.369
318.15 K, x1 = 0.8	0.41
318.15 K, x1 = 1	0.437
328.15 K, x1 = 0.1	0.492
328.15 K, x1 = 0.2	0.502
328.15 K, x1 = 0.5	0.555
328.15 K, x1 = 0.9	0.682
333.15 K, x1 = 0.5	0.685
338.15 K, x1 = 0.4	0.772
343.15 K, x1 = 0.4	0.913
348.15 K, x1 = 0.6	1.14
353.15 K, x1 = 0.2	1.18
353.15 K, x1 = 0.3	1.21
353.15 K, x1 = 0.4	1.24
353.15 K, x1 = 0.5	1.27
353.15 K, x1 = 0.7	1.38
353.15 K, x1 = 1	1.62
358.15 K, x1 = 0.3	1.39
358.15 K, x1 = 0.4	1.42
358.15 K, x1 = 0.8	1.61
363.15 K, x1 = 0.5	1.67
363.15 K, x1 = 1	2.1

CCC[N+]1(C)CCCCC1.O=S(=O)([N-]S(=O)(=O)C(F)(F)F)C(F)(F)F + CCC[N+](C)(C)C.O=S(=O)([N-]S(=O)(=O)C(F)(F)F)C(F)(F)F
101.3 kPa, x2 = 0
Settings	viscosity [mPa·s]
293.15 K	199
298.15 K	147
303.15 K	112
313.15 K	69
338.15 K	26.6
343.15 K	22.9

CC(=O)[O-].Cn1cc[n+](C)c1 + CCO
293.15 K, 101.3 kPa
Settings	electrical conductivity [S/m]
x2 = 0	0.275
x2 = 0.0694	0.335
x2 = 0.1341	0.401
x2 = 0.2695	0.559
x2 = 0.4097	0.873
x2 = 0.5071	1.197
x2 = 0.6815	1.821
x2 = 0.7393	1.903
x2 = 0.7685	1.86
x2 = 0.7896	1.683
x2 = 0.8843	0.86
x2 = 0.9267	0.491
x2 = 0.9487	0.302
x2 = 0.9595	0.213
x2 = 0.9709	0.131

CC[n+]1ccn(C)c1.[I-] + CCO
Settings	electrical conductivity [S/m]
298.15 K, 100 kPa, x1 = 0.4385	2.22

CC[N+](C)(CC)CCOC.F[B-](F)(F)F + CC[N+](C)(CC)CCOC.O=S(=O)([N-]S(=O)(=O)C(F)(F)F)C(F)(F)F
100 kPa
Settings	electrical conductivity [S/m]
293.15 K, x2 = 0.1	0.112
298.15 K, x2 = 0.3	0.19
298.15 K, x2 = 0.7	0.227
298.15 K, x2 = 0.9	0.267
303.15 K, x2 = 0.9	0.341
308.15 K, x2 = 0.3	0.325
308.15 K, x2 = 0.5	0.356
313.15 K, x2 = 0.2	0.388
313.15 K, x2 = 0.3	0.409
313.15 K, x2 = 0.8	0.495
318.15 K, x2 = 0.4	0.525
318.15 K, x2 = 0.7	0.573
323.15 K, x2 = 0.2	0.595
323.15 K, x2 = 0.3	0.612
328.15 K, x2 = 0.2	0.722
328.15 K, x2 = 0.6	0.806
333.15 K, x2 = 0.1	0.892
333.15 K, x2 = 0.5	0.911
333.15 K, x2 = 0.7	0.948
338.15 K, x2 = 0.7	1.1
343.15 K, x2 = 0.2	1.19
343.15 K, x2 = 0.3	1.19
343.15 K, x2 = 0.8	1.25

CC1(C)CC(O)CC(C)(C)N1[O] + CC[N+](CC)(CC)CC.[Cl-] + O
323.15 K, 100 kPa, frequency 0.001 MHz
Settings	electrical conductivity [S/m]
x1 = 0.091, x2 = 0.182	1.2
x1 = 0.167, x2 = 0.167	0.61
x1 = 0.2, x2 = 0	0.019
x1 = 0.286, x2 = 0.143	0.16

CC[NH+](CC)CC.O=[N+]([O-])[O-] + CC[NH3+].O=[N+]([O-])[O-]
101 kPa, frequency 0.00293 MHz
Settings	electrical conductivity [S/m]
293.15 K, x1 = 0.149	1.28
293.15 K, x1 = 0.1997	1.15
293.15 K, x1 = 0.25	0.97
293.15 K, x1 = 0.2993	0.86
293.15 K, x1 = 0.3475	0.79
298.15 K, x1 = 0.149	1.52
303.15 K, x1 = 0.3475	1.12
313.15 K, x1 = 0.3995	1.38
313.15 K, x1 = 0.4472	1.23
323.15 K, x1 = 0.0999	3.31
323.15 K, x1 = 0.3995	1.8

101 kPa
Settings	viscosity [mPa·s]
293.15 K, x1 = 0.149	55.3
293.15 K, x1 = 0.1997	62.8
293.15 K, x1 = 0.25	69.1
293.15 K, x1 = 0.2993	76.9
293.15 K, x1 = 0.3475	83.5
298.15 K, x1 = 0.149	45.3
303.15 K, x1 = 0.3475	54.8
313.15 K, x1 = 0.3995	40.8
313.15 K, x1 = 0.4472	44.4
323.15 K, x1 = 0.0999	19.7
323.15 K, x1 = 0.3995	29.1
323.15 K, x1 = 0.5003	33.1
328.15 K, x1 = 0.149	18.1
328.15 K, x1 = 0.3995	25.1
328.15 K, x1 = 0.5003	28.3
328.15 K, x1 = 0.5485	27.4
333.15 K, x1 = 0.1997	17.5
333.15 K, x1 = 0.5003	24.7
333.15 K, x1 = 0.5485	23.9
338.15 K, x1 = 0.2993	17.3
338.15 K, x1 = 0.4472	20.3
343.15 K, x1 = 0.0499	11.6
343.15 K, x1 = 0.2993	15.3
348.15 K, x1 = 0.0999	11.1
348.15 K, x1 = 0.2993	13.7
348.15 K, x1 = 0.4472	15.7
353.15 K, x1 = 0.2993	12.4

CNC=O + CC[n+]1ccn(C)c1.F[B-](F)(F)F
298 K, 101 kPa
Settings	electrical conductivity [S/m]
x1 = 0.21	2.08
x1 = 0.47	2.73
x1 = 0.66	2.95

CC[n+]1ccn(C)c1.C[C@H](N)C(=O)[O-] + CC[n+]1ccn(C)c1.N#C[C-](C#N)C#N
101 kPa, x2 = 0
Settings	viscosity [mPa·s]
308.15 K	137.5
313.15 K	103.5

CCCCn1cc[n+](CCOCC[n+]2ccn(CCCC)c2)c1.N#C[N-]C#N.N#C[N-]C#N + CC[n+]1ccn(C)c1.N#C[N-]C#N + O=S(=O)([N-]S(=O)(=O)C(F)(F)F)C(F)(F)F.[Li+]
100 kPa, x1 = 0.2561, x2 = 0.6541
Settings	electrical conductivity [S/m]
298 K	0.527
303 K	0.737
313 K	0.921
323 K	1.35
333 K	1.74
343 K	2.13

CC[S+](CC)CCOCCOCC[S+](CC)CC.N#C[N-]C#N.N#C[N-]C#N + CC[n+]1ccn(C)c1.N#C[N-]C#N + O=S(=O)([N-]S(=O)(=O)C(F)(F)F)C(F)(F)F.[Li+]
100 kPa, x1 = 0.2666, x2 = 0.6449
Settings	electrical conductivity [S/m]
298 K	0.501
303 K	0.604
313 K	0.841
323 K	1.13
333 K	1.44
343 K	1.72

O=S(=O)([O-])C(F)(F)F.[Li+] + CC[n+]1ccn(C)c1.O=S(=O)([N-]S(=O)(=O)C(F)(F)F)C(F)(F)F
electrical conductivity [S/m], 101 kPa
Settings	288.15 K	298.15 K	333.15 K
x1 = 0.01919	0.57	0.819	2
x2 = 0.9274	–	0.672	1.71
x2 = 0.9587	0.515	0.766	1.93

O=S(=O)([O-])C(F)(F)F.[Li+] + CC[n+]1ccn(C)c1.O=S(=O)([O-])C(F)(F)F
electrical conductivity [S/m], 101 kPa
Settings	x1 = 0.007746	x1 = 0.01537	x2 = 0.9697	x2 = 0.9746
288.15 K	0.625	0.568	–	0.535
298.15 K	0.904	0.837	0.775	0.792
333.15 K	2.31	2.14	2.02	2.05

CC[n+]1ccn(C)c1.O=S(=O)([O-])C(F)(F)F + CN(C)C=O
100 kPa
Settings	viscosity [mPa·s]
298.15 K, x2 = 0.1933	28.54
303.15 K, x2 = 0.406	12.55
308.15 K, x2 = 0.406	10.91
313.15 K, x2 = 0.5976	4.5
313.15 K, x2 = 0.7981	2.03
318.15 K, x2 = 0.0917	19.61
318.15 K, x2 = 0.1933	15.46
318.15 K, x2 = 0.2995	11.68
318.15 K, x2 = 0.6947	2.6
323.15 K, x2 = 0.6947	2.42
